Earlier results on one substance are cited in US20240136011A1, “SYSTEM, METHOD, AND COMPUTER PROGRAM FOR PHYSICS-BASED BINDING AFFINITY ESTIMATION” (BOARD OF TRUSTEES OF THE UNIVERSITY OF ARKANSAS, priority 2022, published 2024).

The target in this data set is human fibroblast growth factor 1 (hFGF1) (Homo sapiens, UniProt P05230). As to conditions: MM-GBSA; recent computational studies.
Chain of human fibroblast growth factor 1 (hFGF1) (P05230 whole entry): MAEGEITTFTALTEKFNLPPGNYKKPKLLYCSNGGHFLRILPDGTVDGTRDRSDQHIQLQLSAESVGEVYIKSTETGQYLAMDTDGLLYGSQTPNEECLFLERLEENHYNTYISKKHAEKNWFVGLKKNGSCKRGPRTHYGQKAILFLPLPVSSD

Regarding heparin hexasaccharide, the “ΔG°” value was -95 ± 11 kcal/mol.
